In PubChem BioAssay (NCI):
Several values for one entry are separate records, joined by “and”; a condition that tells them apart may be missing. Equal values may be shown once.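 Protocol summary: plate cells (96-well), add compound at 5 concentrations, incubate 48 h, interpolate endpoints linearly. GI50 = concentration required for 50% inhibition of growth. Definition used: TGI = concentration required for complete inhibition of growth.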 Where a SMILES comes first, the peptide text is derived from it. [ ]: non-standard residue; d: D form. The star is where a group is joined. ξ: configuration not given here. NMeN = CN[C@@H](CC(N)=O)C(=O)O; NMeV = CN[C@H](C(=O)O)C(C)C; ξNMeV = CNC(C(=O)O)C(C)C; Boc = CC(C)(C)OC(=O)*; ξNMeA = CNC(C)C(=O)O

Experiments:
Test in all cases: inhibition of tumour cell growth, NCI panel, 48 h
COLO 205 colon = system: COLO 205 colon
SW-620 colon = system: SW-620 colon
CAKI-1 renal = system: CAKI-1 renal
SF-268 CNS = system: SF-268 CNS
OVCAR-4 ovarian = system: OVCAR-4 ovarian
MOLT-4 leukemia = system: MOLT-4 leukemia
M14 melanoma = system: M14 melanoma
786-0 renal = system: 786-0 renal
SF-539 CNS = system: SF-539 CNS
SK-MEL-28 melanoma = system: SK-MEL-28 melanoma

| SMILES | GI50 (COLO 205 colon) | TGI (COLO 205 colon) | GI50 (SW-620 colon) | TGI (SW-620 colon) | GI50 (CAKI-1 renal) | TGI (CAKI-1 renal) | GI50 (SF-268 CNS) | TGI (SF-268 CNS) | GI50 (OVCAR-4 ovarian) | TGI (OVCAR-4 ovarian) | GI50 (MOLT-4 leukemia) | TGI (MOLT-4 leukemia) | GI50 (M14 melanoma) | TGI (M14 melanoma) | GI50 (786-0 renal) | TGI (786-0 renal) | GI50 (SF-539 CNS) | TGI (SF-539 CNS) | GI50 (SK-MEL-28 melanoma) | TGI (SK-MEL-28 melanoma) |
| --- | --- | --- | --- | --- | --- | --- | --- | --- | --- | --- | --- | --- | --- | --- | --- | --- | --- | --- | --- | --- |
| CCC[CH2][Sn]([CH2]CCC)([O]C(=O)C(N)CSC)[O]C(=O)C(N)CSC (stereo not given) | 6.5 µM | 19.9 µM | 6.08 µM | 23 µM | 5 µM | 17.4 µM | 4.06 µM | 11.3 µM | 13 µM | 26.1 µM | 2.42 µM | 7.65 µM | 10.5 µM | 16.2 µM | 8.14 µM | 21.8 µM | 13.3 µM | 26.7 µM | 5.86 µM | 18.2 µM |
| O=C1NC(=S)NC(=O)C1=Cc1cccc2cc3ccccc3cc12 | – | 3.7 µM | – | > 25.2 µM | – | 4.15 µM | – | 4.73 µM | – | 4.75 µM | – | 5.24 µM | – | 4.89 µM | – | 3.42 µM | – | 3.1 µM | – | 6.58 µM |
| O=CN1N=C(c2ccc(Cl)cc2)CC1c1cccc(Nc2ccnc3cc(Cl)ccc23)c1 (stereo not given) | 1.43 µM | 4.51 µM | 1.61 µM | 24.2 µM | – | – | 2.73 µM | > 100 µM | 0.638 µM | 16.7 µM | 1.13 µM | 11 µM | 1.55 µM | 13.5 µM | 2.96 µM | 14.5 µM | 1.69 µM | 5.03 µM | 3.15 µM | 31.2 µM |
| C=C(C)CN(CC#N)CC(=C)C | – | > 100 µM | – | > 100 µM | – | > 100 µM | – | > 100 µM | – | > 100 µM | – | > 100 µM | – | > 100 µM | – | > 100 µM | – | – | – | > 100 µM |
| C=C1C(=O)[C@@]23CC1C(O)[C@@H](OC(C)=O)[C@@H]2C1(C)C(OC(C)=O)C[C@@H](OC(C)=O)C(C)(C)[C@@H]1C[C@H]3OC(C)=O (stereo not given in full) | 1.69 µM and 1.72 µg/mL | 3.15 µM and 3.26 µg/mL | 1.7 µM and 1.85 µg/mL | 3.33 µM and 4.57 µg/mL | 3.03 µg/mL | > 10 µM and 8.66 µg/mL | > 10 µM and 6.82 µg/mL | > 10 µM and 28.3 µg/mL | > 10 µM and 8.36 µg/mL | > 10 µM and 22.1 µg/mL | 1.71 µM and 1.28 µg/mL | 4.1 µM and 4.03 µg/mL | 2.33 µM and 2.68 µg/mL | > 10 µM and 7.15 µg/mL | 1.81 µg/mL | > 10 µM and 3.97 µg/mL | 1.69 µM and 3.73 µg/mL | 3.7 µM and 11.6 µg/mL | 6.69 µM and 1.67 µg/mL | > 10 µM and 3.46 µg/mL |
| Cc1cc(I)cc(CN(C)CCN2CCCC2)c1O | 19 µM | 40.2 µM | 23.2 µM | 60 µM | 29.6 µM | > 93.3 µM | 32.4 µM | > 88.2 µM | 38.7 µM | > 100 µM | 3.35 µM | 21 µM | 15.8 µM | 34.8 µM | 21.1 µM | 59.8 µM | 21 µM | 53.3 µM | 17.7 µM | 35.4 µM |
| O=C(Nc1ccc(F)cc1F)c1cc(Br)ccc1O | 3.75 µM | 13.8 µM | 3.06 µM | 55.9 µM | 1.76 µM | 6.66 µM | 2.78 µM | 38.7 µM | 2.1 µM | 92 µM | 2.96 µM | 12.2 µM | 1.91 µM | 6.99 µM | 3.13 µM | 10.2 µM | 2.68 µM | 10.9 µM | 1.43 µM | 6.24 µM |
| COC(=O)C(C)N(C)C(=O)[C@H](CC(N)=O)N(C)C(=O)[C@@H]1CCCN1C(=O)[C@H](C(C)C)N(C)C(=O)C(C(C)C)N(C)C(=O)[C@@H](NC(=O)OC(C)(C)C)C(C)C (stereo not given in full) (Boc-V[ξNMeV][NMeV]P[NMeN][ξNMeA]-OMe) | 34.9 µM | > 100 µM | 12.7 µM | > 50 µM and 26.7 µM | > 100 µM | > 100 µM | – | > 100 µM | – | > 100 µM | > 100 µM | 38.9 µM and > 100 µM | > 100 µM | > 100 µM | 57 µM | > 100 µM | > 100 µM | > 100 µM | > 100 µM | > 100 µM |
| CCCCc1ccc(-n2c3nc(=O)n(C)c(=O)c-3nc3ccccc32)cc1 | – | 13 µM | – | 19.8 µM | – | 54.5 µM | – | 34.1 µM | – | 22 µM | – | 41.9 µM | – | 21.7 µM | – | 32.1 µM | – | 27.1 µM | – | – |
| Cc1cc(C)nc(NS(=O)(=O)c2ccc(Nc3c4ccc(Cl)cc4nc4c(C(=O)Nc5ccc(S(=O)(=O)N=C(N)N)cc5)cccc34)cc2)n1 | – | – | – | – | – | – | – | > 100 µM | – | > 100 µM | – | > 100 µM | – | > 100 µM | – | > 100 µM | – | > 100 µM | – | > 100 µM |
| CCN(CC)CCNC(=O)c1nn(C)c(=S)[nH]c1=S | – | > 100 µM | – | > 100 µM | – | > 100 µM | – | – | – | > 100 µM | – | > 100 µM | – | > 100 µM | – | > 100 µM | – | > 100 µM | – | > 100 µM |
| CCCC(C)C[C@@H](C)CC(C)/C=C(\C)c1oc(=O)c(C)c(O)c1C (stereo not given in full) (tested in a mixture with another compound) | – | 46 µM | – | 35.1 µM | – | 28.1 µM | – | 33.5 µM | – | 26.6 µM | – | – | – | 29.1 µM | – | 29.5 µM | – | 30.1 µM | – | 28.2 µM |
| COC(=O)C12CC3CC(C1)CC(C(=O)OC)(C3)C2 | – | – | – | > 100 µM | – | > 100 µM | – | > 100 µM | – | > 100 µM | – | > 100 µM | – | > 100 µM | – | > 100 µM | – | > 100 µM | – | > 100 µM |
| CCc1nc(N)nc(C(=O)NCCNC(=O)c2nc(N)nc(CC)c2C)c1C | – | – | – | > 100 µM | – | > 100 µM | – | > 100 µM | – | > 100 µM | – | > 100 µM | – | > 100 µM | – | > 100 µM | – | > 100 µM | – | > 100 µM |
| CN1CCCCCC(=N\O)/C(=N/O)CCCCC1 | – | – | – | > 100 µM | – | > 100 µM | – | > 100 µM | – | – | – | > 100 µM | – | > 100 µM | – | > 100 µM | – | > 100 µM | – | > 100 µM |
| Cc1ccc(/C=C/C(=O)c2sc(-c3cccnc3)nc2C)cc1 | – | > 100 µM | – | > 100 µM | – | > 100 µM | – | – | – | – | – | > 100 µM | – | – | – | > 100 µM | – | > 100 µM | – | – |
| COc1ccc2cc3[n+](cc2c1OC)CCc1cc(O)c(O)cc1-3 | – | > 100 µM | – | > 100 µM | – | > 100 µM | – | > 100 µM | – | > 100 µM | – | > 100 µM | – | > 100 µM | – | > 100 µM | – | > 100 µM | – | – |
